According to ChEMBL document CHEMBL5154644, “Design, Synthesis, and Structure-Activity Relationship Optimization of Pyrazolopyrimidine Amide Inhibitors of Phosphoinositide 3-Kinase γ (PI3Kγ)” (J Med Chem, 2022):
pIC50: −log10 of the molar value.

Target: T1, Phosphatidylinositol 4,5-bisphosphate 3-kinase catalytic subunit gamma isoform (Homo sapiens, UniProt P48736)
Experiment: Inhibition of PI3Kgamma (unknown origin) in […] stimulated human THP-1 cells assessed as reduction in Akt phosphorylation level at Ser473 residue preincubated for 60 mins followed by rhMCP-1 stimulation and measured after 2 mins by AlphaLisa assay
Format: cell-based
Details: not given

T1 sequence (P48736 whole entry, canonical isoform): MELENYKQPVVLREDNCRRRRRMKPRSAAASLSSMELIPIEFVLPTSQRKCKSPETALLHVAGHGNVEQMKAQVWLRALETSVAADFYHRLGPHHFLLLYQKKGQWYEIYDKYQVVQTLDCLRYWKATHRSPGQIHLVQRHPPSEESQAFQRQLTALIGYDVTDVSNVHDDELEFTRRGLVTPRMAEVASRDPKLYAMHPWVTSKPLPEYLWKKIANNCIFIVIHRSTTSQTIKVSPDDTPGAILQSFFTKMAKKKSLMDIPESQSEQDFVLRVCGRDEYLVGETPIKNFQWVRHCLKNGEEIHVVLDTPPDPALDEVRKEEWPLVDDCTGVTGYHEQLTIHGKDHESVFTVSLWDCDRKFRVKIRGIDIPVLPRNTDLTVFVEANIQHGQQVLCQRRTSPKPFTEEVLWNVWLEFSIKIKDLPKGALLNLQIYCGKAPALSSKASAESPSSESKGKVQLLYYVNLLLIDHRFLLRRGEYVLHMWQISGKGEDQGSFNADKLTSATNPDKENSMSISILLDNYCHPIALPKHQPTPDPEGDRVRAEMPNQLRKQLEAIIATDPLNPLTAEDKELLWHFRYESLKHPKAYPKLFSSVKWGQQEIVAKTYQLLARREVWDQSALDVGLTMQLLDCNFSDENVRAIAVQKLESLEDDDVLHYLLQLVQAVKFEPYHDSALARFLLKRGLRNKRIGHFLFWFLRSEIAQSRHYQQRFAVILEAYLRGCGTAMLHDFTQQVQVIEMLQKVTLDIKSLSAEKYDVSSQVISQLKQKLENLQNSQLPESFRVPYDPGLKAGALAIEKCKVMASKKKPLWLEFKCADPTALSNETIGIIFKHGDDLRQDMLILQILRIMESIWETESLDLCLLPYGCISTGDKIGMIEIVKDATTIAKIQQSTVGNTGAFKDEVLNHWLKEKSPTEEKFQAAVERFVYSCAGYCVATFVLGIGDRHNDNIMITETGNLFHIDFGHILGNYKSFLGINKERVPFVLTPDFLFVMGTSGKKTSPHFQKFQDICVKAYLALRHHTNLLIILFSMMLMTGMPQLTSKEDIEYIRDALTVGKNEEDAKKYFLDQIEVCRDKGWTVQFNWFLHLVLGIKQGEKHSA

| pIC50 | SMILES |
| --- | --- |
| 7.32 | C[C@@H](C1CC1)N1Cc2cc(-c3ccn4nc(N)c(C(=O)N[C@@H](CO)C5CC5)c4n3)cc(OC(F)F)c2C1=O |
| 7.51 | C[C@H](N1Cc2cc(-c3ccn4nc(N)c(C(=O)N[C@H]5CC[C@@](C)(O)CC5)c4n3)cc(NS(C)(=O)=O)c2C1=O)C(F)(F)F |

Organism: Homo sapiens
Experiment: Selectivity ratio of IC50 for inhibition of PI3Kdelta (unknown origin) to IC50 for inhibition of PI3Kgamma (unknown origin)
Details: not given

| Ratio IC50 | SMILES |
| --- | --- |
| 46 | C[C@H](N1Cc2cc(-c3ccn4nc(N)c(C(=O)N[C@H]5CC[C@@](C)(O)CC5)c4n3)cc(NS(C)(=O)=O)c2C1=O)C(F)(F)F |

Target: Phosphatidylinositol 4,5-bisphosphate 3-kinase catalytic subunit beta isoform (Homo sapiens, UniProt P42338)
Sequence (P42338 whole entry, canonical isoform): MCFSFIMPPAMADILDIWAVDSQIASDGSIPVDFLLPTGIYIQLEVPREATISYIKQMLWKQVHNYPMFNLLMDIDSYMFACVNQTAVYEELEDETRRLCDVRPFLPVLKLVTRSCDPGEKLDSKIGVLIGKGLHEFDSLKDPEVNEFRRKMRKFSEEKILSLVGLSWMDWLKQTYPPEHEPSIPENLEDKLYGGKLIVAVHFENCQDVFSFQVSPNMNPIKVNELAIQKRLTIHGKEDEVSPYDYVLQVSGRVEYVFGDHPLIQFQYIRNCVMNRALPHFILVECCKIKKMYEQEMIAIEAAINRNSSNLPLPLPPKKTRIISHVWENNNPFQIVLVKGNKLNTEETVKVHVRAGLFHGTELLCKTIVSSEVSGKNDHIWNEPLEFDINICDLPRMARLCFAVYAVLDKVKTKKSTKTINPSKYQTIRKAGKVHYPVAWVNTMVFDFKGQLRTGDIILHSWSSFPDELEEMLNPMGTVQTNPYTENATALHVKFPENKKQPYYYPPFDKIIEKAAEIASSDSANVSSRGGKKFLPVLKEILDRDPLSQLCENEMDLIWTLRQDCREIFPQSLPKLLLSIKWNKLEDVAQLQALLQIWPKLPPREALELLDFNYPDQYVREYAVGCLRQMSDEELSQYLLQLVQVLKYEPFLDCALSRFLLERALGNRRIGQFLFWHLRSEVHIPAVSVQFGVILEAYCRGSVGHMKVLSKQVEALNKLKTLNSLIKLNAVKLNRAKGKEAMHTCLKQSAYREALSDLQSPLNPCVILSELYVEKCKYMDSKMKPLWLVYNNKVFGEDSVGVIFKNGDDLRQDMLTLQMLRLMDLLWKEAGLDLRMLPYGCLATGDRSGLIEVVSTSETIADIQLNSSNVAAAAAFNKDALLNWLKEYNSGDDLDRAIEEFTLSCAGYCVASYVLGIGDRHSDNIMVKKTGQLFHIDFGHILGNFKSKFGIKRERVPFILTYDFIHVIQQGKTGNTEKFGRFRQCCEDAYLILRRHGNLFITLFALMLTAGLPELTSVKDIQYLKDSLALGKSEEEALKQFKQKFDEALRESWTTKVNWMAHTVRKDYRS
Experiment: Inhibition of PI3Kbeta (unknown origin) using PIP2 as substrate preincubated for 1 hr followed by substrate addition and measured after 60 mins in presence of ATP by ADP-glo assay
Details: not given

| pIC50 | SMILES |
| --- | --- |
| 4.53 | C[C@@H](C1CC1)N1Cc2cc(-c3ccn4nc(N)c(C(=O)N[C@@H](CO)C5CC5)c4n3)cc(OC(F)F)c2C1=O |

Organism: Homo sapiens
Experiment: Selectivity ratio of IC50 for inhibition of PI3Kbeta (unknown origin) to IC50 for inhibition of PI3Kgamma (unknown origin)
Details: not given

| Ratio IC50 | SMILES |
| --- | --- |
| 9400 | C[C@@H](C1CC1)N1Cc2cc(-c3ccn4nc(N)c(C(=O)N[C@@H](CO)C5CC5)c4n3)cc(OC(F)F)c2C1=O |

Target: hERG (Homo sapiens, UniProt Q12809)
Sequence (Q12809 whole entry): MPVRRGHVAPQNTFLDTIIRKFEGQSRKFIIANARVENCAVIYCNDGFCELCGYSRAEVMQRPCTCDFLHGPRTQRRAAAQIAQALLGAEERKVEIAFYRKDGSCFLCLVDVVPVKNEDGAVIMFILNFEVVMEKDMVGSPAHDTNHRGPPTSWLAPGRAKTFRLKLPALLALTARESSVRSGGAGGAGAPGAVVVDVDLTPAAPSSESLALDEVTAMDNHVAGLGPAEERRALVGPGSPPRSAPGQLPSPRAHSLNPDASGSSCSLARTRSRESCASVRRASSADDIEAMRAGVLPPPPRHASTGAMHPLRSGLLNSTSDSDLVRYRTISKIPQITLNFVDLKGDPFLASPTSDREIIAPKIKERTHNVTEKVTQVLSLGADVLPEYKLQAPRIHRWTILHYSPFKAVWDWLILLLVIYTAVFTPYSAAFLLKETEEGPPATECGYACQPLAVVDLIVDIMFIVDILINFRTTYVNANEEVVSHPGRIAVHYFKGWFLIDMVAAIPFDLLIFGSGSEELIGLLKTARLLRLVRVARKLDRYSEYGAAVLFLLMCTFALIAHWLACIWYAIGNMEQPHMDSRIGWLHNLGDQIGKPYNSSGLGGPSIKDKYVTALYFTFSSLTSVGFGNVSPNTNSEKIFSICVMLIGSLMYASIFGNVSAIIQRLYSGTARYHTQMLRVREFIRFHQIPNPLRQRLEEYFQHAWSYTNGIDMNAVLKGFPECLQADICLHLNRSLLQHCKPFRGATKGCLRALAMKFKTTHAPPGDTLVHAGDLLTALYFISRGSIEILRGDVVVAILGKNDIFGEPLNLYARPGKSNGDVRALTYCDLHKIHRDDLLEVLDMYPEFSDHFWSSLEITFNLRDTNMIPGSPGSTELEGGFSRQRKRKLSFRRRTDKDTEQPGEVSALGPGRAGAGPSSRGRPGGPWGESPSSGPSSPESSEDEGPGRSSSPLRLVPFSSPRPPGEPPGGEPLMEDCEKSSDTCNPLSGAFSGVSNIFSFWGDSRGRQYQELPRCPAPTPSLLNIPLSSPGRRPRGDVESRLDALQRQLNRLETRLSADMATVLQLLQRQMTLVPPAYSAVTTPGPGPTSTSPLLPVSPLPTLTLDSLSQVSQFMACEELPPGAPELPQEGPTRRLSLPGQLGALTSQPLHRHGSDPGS
Experiment: Inhibition of human ERG at 10 uM by patch clamp assay relative to control
Format: toxicity
Details: not given

| SMILES | inhibition at 10 µM [%] |
| --- | --- |
| C[C@@H](C1CC1)N1Cc2cc(-c3ccn4nc(N)c(C(=O)N[C@@H](CO)C5CC5)c4n3)cc(OC(F)F)c2C1=O | 21 |

Organism: Homo sapiens
Experiment: Selectivity ratio of IC50 for inhibition of PI3Kalpha (unknown origin) to IC50 for inhibition of PI3Kgamma (unknown origin)
Details: not given

| Ratio IC50 | SMILES |
| --- | --- |
| 611 | C[C@@H](C1CC1)N1Cc2cc(-c3ccn4nc(N)c(C(=O)N[C@@H](CO)C5CC5)c4n3)cc(OC(F)F)c2C1=O |
| 61 | C[C@H](N1Cc2cc(-c3ccn4nc(N)c(C(=O)N[C@H]5CC[C@@](C)(O)CC5)c4n3)cc(NS(C)(=O)=O)c2C1=O)C(F)(F)F |

Test system: not listed separately
Experiment: Metabolic stability in rat hepatocyte assessed as intrinsic clearance per 10^8 cells at 0.5 uM by LC-MS/MS analysis
Format: ADME, cell-based
Details: hepatocytes

| hepatocyte intrinsic clearance [µL/min] | SMILES |
| --- | --- |
| 8.42 | C[C@@H](C1CC1)N1Cc2cc(-c3ccn4nc(N)c(C(=O)N[C@@H](CO)C5CC5)c4n3)cc(OC(F)F)c2C1=O |
| 3.38 | C[C@H](N1Cc2cc(-c3ccn4nc(N)c(C(=O)N[C@H]5CC[C@@](C)(O)CC5)c4n3)cc(NS(C)(=O)=O)c2C1=O)C(F)(F)F |

Test system: not listed separately
Experiment: Metabolic stability in human hepatocytes assessed as intrinsic clearance per 10^6 cells at 0.5 uM by LC-MS/MS analysis
Format: ADME, cell-based, Hepatocyte
Details: read-out: CLH

| hepatocyte CLint at 0.5 µM [µL/min/1e6 cells] | SMILES |
| --- | --- |
| 4.35 | C[C@@H](C1CC1)N1Cc2cc(-c3ccn4nc(N)c(C(=O)N[C@@H](CO)C5CC5)c4n3)cc(OC(F)F)c2C1=O |
| 2.44 | C[C@H](N1Cc2cc(-c3ccn4nc(N)c(C(=O)N[C@H]5CC[C@@](C)(O)CC5)c4n3)cc(NS(C)(=O)=O)c2C1=O)C(F)(F)F |

Target: T1, Phosphatidylinositol 4,5-bisphosphate 3-kinase catalytic subunit gamma isoform
Experiment: Inhibition of PI3Kgamma in SDF-1alpha stimulated human whole blood assessed as reduction in phospho-AKT kinase activity preincubated for 1 hr followed by SDF-1alpha stimulation and measured after 2 mins by flow cytometric analysis
Format: tissue-based
Details: not given

| pIC50 | SMILES |
| --- | --- |
| 6.29 | C[C@@H](C1CC1)N1Cc2cc(-c3ccn4nc(N)c(C(=O)N[C@@H](CO)C5CC5)c4n3)cc(OC(F)F)c2C1=O |
| 6.10 | C[C@H](N1Cc2cc(-c3ccn4nc(N)c(C(=O)N[C@H]5CC[C@@](C)(O)CC5)c4n3)cc(NS(C)(=O)=O)c2C1=O)C(F)(F)F |

Target: T1, Phosphatidylinositol 4,5-bisphosphate 3-kinase catalytic subunit gamma isoform
Experiment: Inhibition of PI3Kgamma (unknown origin) using PIP2 as substrate preincubated for 1 hr followed by substrate addition and measured after 60 mins in presence of ATP by ADP-glo assay
Details: not given

| pIC50 | SMILES |
| --- | --- |
| 8.51 | C[C@@H](C1CC1)N1Cc2cc(-c3ccn4nc(N)c(C(=O)N[C@@H](CO)C5CC5)c4n3)cc(OC(F)F)c2C1=O |
| 8.49 | C[C@H](N1Cc2cc(-c3ccn4nc(N)c(C(=O)N[C@H]5CC[C@@](C)(O)CC5)c4n3)cc(NS(C)(=O)=O)c2C1=O)C(F)(F)F |

Target: T2, Phosphatidylinositol 4,5-bisphosphate 3-kinase catalytic subunit delta isoform (Homo sapiens, UniProt O00329)
T2 sequence (O00329 whole entry): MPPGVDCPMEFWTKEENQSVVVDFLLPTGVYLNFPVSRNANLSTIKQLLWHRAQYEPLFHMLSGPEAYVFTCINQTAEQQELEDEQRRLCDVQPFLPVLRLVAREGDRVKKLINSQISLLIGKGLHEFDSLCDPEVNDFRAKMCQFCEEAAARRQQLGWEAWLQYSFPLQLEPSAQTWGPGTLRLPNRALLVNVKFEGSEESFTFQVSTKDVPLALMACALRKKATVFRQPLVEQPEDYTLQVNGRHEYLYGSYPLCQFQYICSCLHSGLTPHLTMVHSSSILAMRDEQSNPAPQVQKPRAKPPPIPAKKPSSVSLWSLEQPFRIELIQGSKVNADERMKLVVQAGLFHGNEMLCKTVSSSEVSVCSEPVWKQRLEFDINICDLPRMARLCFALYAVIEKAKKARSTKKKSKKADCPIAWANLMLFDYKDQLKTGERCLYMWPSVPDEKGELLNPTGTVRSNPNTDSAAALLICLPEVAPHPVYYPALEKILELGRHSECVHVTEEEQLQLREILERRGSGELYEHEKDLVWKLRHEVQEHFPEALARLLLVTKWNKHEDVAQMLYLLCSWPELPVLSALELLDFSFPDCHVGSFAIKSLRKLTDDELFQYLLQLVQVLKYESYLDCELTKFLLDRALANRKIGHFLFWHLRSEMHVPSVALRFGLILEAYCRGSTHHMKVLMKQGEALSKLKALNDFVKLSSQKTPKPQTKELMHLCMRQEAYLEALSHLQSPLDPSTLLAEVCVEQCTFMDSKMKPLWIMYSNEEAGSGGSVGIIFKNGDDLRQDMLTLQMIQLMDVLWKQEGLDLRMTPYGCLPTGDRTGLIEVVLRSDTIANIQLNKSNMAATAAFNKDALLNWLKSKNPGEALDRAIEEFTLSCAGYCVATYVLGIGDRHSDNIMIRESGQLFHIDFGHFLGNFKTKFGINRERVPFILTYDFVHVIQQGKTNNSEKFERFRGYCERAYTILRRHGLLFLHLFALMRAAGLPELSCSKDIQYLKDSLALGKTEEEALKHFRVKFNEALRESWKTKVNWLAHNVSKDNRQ
Experiment: Inhibition of PI3Kdelta (unknown origin) using PIP2 as substrate preincubated for 1 hr followed by substrate addition and measured after 60 mins in presence of ATP by ADP-glo assay
Details: not given

| pIC50 | SMILES |
| --- | --- |
| 5.51 | C[C@@H](C1CC1)N1Cc2cc(-c3ccn4nc(N)c(C(=O)N[C@@H](CO)C5CC5)c4n3)cc(OC(F)F)c2C1=O |
| 6.84 | C[C@H](N1Cc2cc(-c3ccn4nc(N)c(C(=O)N[C@H]5CC[C@@](C)(O)CC5)c4n3)cc(NS(C)(=O)=O)c2C1=O)C(F)(F)F |

Test system: not listed separately
Experiment: Hepatic clearance in Sprague-Dawley rat by LC-MS/MS analysis
Format: ADME
Details: in vivo

| CLH [mL/min/kg] | SMILES |
| --- | --- |
| 15 | C[C@@H](C1CC1)N1Cc2cc(-c3ccn4nc(N)c(C(=O)N[C@@H](CO)C5CC5)c4n3)cc(OC(F)F)c2C1=O |

Target: CYP3A4 (Homo sapiens, UniProt P08684)
Sequence (P08684 whole entry): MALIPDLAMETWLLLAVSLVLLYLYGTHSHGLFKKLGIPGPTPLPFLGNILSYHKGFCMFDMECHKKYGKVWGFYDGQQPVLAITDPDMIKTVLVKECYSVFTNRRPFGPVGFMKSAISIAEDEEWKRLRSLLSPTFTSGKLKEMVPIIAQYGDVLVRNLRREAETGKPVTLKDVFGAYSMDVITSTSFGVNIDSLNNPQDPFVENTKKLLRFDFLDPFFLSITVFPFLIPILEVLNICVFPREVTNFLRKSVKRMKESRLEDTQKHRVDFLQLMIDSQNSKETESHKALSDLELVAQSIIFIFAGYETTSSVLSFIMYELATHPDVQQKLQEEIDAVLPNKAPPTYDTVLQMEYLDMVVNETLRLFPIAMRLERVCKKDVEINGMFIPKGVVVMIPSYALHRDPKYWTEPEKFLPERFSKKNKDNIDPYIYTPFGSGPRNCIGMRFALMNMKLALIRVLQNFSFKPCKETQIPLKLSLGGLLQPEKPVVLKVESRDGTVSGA
Experiment: in vitro
Details: human liver microsomes, probe midazolam
Description: Time dependent inhibition of CYP3A4 in human liver microsomes at 10 uM using midazolam as substrate preincubated for 30 mins in presence of NADPH by LC/MS/MS analysis relative to control

| inhibition at 30 min, 10 µM [%] | SMILES |
| --- | --- |
| 18 | C[C@@H](C1CC1)N1Cc2cc(-c3ccn4nc(N)c(C(=O)N[C@@H](CO)C5CC5)c4n3)cc(OC(F)F)c2C1=O |

Target: Phosphatidylinositol 4,5-bisphosphate 3-kinase catalytic subunit alpha isoform (Homo sapiens, UniProt P42336)
Sequence (P42336 whole entry, canonical isoform): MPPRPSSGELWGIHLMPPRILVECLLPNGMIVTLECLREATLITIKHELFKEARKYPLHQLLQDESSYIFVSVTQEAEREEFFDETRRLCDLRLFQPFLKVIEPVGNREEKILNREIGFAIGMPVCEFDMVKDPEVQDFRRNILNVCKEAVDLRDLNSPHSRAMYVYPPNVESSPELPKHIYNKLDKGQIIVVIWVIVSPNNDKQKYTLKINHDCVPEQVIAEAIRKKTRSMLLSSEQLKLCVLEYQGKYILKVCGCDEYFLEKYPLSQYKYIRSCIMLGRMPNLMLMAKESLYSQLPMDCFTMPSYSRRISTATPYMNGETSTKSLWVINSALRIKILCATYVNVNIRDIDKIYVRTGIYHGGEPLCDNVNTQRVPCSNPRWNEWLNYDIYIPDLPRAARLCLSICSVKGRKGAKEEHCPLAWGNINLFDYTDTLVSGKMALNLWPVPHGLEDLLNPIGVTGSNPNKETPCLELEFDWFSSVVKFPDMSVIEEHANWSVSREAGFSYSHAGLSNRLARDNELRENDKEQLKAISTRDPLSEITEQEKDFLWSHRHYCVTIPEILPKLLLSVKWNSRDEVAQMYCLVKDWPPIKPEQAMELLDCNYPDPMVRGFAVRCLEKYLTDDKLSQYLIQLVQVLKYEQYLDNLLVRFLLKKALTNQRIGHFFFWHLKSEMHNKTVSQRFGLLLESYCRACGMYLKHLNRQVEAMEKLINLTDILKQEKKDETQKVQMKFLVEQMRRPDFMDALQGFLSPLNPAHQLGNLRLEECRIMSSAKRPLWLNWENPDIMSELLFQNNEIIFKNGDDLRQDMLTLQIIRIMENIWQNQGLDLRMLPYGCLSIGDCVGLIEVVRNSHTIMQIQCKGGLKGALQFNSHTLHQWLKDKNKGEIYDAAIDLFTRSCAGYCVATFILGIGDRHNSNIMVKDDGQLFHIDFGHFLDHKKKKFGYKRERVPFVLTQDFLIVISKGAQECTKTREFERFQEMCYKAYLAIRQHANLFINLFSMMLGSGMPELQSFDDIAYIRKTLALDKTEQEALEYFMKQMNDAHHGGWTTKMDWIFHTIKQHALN
Experiment: Inhibition of PI3Kalpha (unknown origin) using PIP2 as substrate preincubated for 1 hr followed by substrate addition and measured after 60 mins in presence of ATP by ADP-glo assay
Details: not given

| pIC50 | SMILES |
| --- | --- |
| 5.72 | C[C@@H](C1CC1)N1Cc2cc(-c3ccn4nc(N)c(C(=O)N[C@@H](CO)C5CC5)c4n3)cc(OC(F)F)c2C1=O |
| 6.71 | C[C@H](N1Cc2cc(-c3ccn4nc(N)c(C(=O)N[C@H]5CC[C@@](C)(O)CC5)c4n3)cc(NS(C)(=O)=O)c2C1=O)C(F)(F)F |
